The target in assay [1] is T1, KRAS G12D (Homo sapiens, UniProt P01116, G12D).
T1 construct: made in house; host or cells: E. coli, e.g. BL21 (DE3)
In words: HTRF assay, KRAS G12D interaction with SOS1. It is filed as biochemical. As to conditions: bins <500 nM / 500 nM to 1000 nM, read-out: Inhibition of KRAS G12D (IC50). An excerpt: (§1) This assay can be also used to assess a selective inhibition or reduction of signaling output of a mutant Ras protein relative to a wildtype, or relative to a different mutant Ras protein. For example, the equilibrium interaction of wildtype KRAS or K-Ras mutant (e.g., wildtype or a mutant thereof) with SOS1 (e.g., hSOS1) can be assessed as a proxy or an indication for the ability of a subject compound to bind and inhibit Ras protein. The HTRF assay detects from (i) a fluorescence resonance energy transfer (FRET) donor (e.g., antiGST-Europium) that is bound to GST-tagged K-Ras mutant to (ii) a FRET acceptor (e.g., anti-6His-XL665) bound to a His-tagged hSOSL1.
(§2) The assay buffer can contain ~5 mM HEPES pH 7.4, ~150 mM NaCl, ~1 mM DTT, 0.05% BSA and 0.0025% (v/v) Igepal. A Ras working solution is prepared in an assay buffer containing typically a suitable amount of the protein construct (e.g., GST-tagged K-Ras mutant) and the FRET donor (e.g., antiGST-Eu(K) from Cisbio, France). A SOS1 working solution is prepared in an assay buffer containing suitable amount of the protein construct (e.g., His-hSOS1) and the FRET acceptor (e.g., anti-6His-XL665 from Cisbio, France). A suitable amount of the protein construct will depend on the range of activity or range of IC50 values being detected or under investigation. For detecting an IC50 within a range of 500 nM, the protein constructs of the same range of molarity can be utilized.
(§3) A fixed volume of DMSO with or without test compound is transferred into a 384-well plate. Ras working solution is added to all wells of the test plate. SOS1 working solution is added to all wells except for those that are subsequently filled with inhibitor control solution. Upon incubation for about 10 minutes or longer, the fluorescence is measured with a M1000Pro plate reader (Tecan) using HTRF detection (excitation 337 nm, emission 1: 620 nm, emission 2: 665 nm). Compounds are tested in duplicate at different concentrations (for example, 10 μM, 2.5 μM, 0.63 μM, 0.16 μM, 0.04 μM, 0.01 μM test compound). The ratiometric data (i.e., emission 2 divided by emission 1) is used to calculate IC50 values against Ras using GraphPad Prism (GraphPad software). Signaling output measured in terms of IC50 values can be obtained and a ratio of IC50 against one mutant relative to another mutant can be calculated. For instance, a selective reduction of K-Ras G12S signaling output can be evidenced by a ratio greater than one. In particular, a selective reduction of K-Ras G12S signaling relative to K-Ras WT signaling is evidenced if the ratio of IC50 (against K-Ras WT) to IC50 (against K-Ras G12S) is greater than 1.

Assay [2] concerns the target T2, KRAS G12S (Homo sapiens, UniProt P01116, G12S).
T2 construct: made in house; host or cells: E. coli, e.g. BL21 (DE3)
In words: HTRF assay, KRAS G12S interaction with SOS1. As to conditions: bins <500 nM / 500 nM to 1000 nM, read-out: Inhibition of KRAS G12S (IC50). It is filed as biochemical.
Excerpt: as §1, §2, §3

The test system of assay [3] is MiaPaca2 cells. The experiment in a line: Ras cellular assay, growth of cells with K-Ras G12C mutation. It is filed as cell-based. As to conditions: Homo sapiens, MIA PaCa-2; cell proliferation assay; bins ≤500 nM / >500 nM; read-out: Inhibition of MiaPaca2 Cells (IC50). The procedure:
For example, this assay can be also used to assess selective growth inhibition of a mutant Ras protein relative to a wildtype or different mutant Ras protein.
MIA PaCa-2 (ATCC CRL-1420) and NCI-H1792 (ATCC CRL-5895) cell lines comprise a G12C mutation and can be used to assess Ras cellular signaling in vitro, e.g., in response to an inhibitor compound of the present disclosure. […] MIA PaCa-2 culture medium is prepared with DMEM/Ham's F12 (e.g., with stable glutamine, 10% FCS, and 2.5% horse serum. NCI-H1792 culture medium is prepared with RPMI 1640 (e.g., with stable glutamine) and 10% FCS.
On a first day (e.g., Day 1), Softagar (Select Agar, Invitrogen, 3% in ddH2O autoclaved) is boiled and tempered at 48° C. Appropriate culture medium (i.e., medium) is tempered to 37° C. Agar (3%) is diluted 1:5 in medium (=0.6%) and plated into 96 well plates (Corning, #3904), then incubated at room temperature for agar solidification. A 3% agar is diluted to 0.25% in medium (1:12 dilution) and tempered at 42° C. Cells are trypsinized, counted, and tempered at 37° C. The cells (e.g., MIA PaCa-2 at about 125-150 cells, NCI-H1792 at about 1000 cells) are resuspended in […] 0.25% Agar and plated, followed by incubation at room temperature for agar solidification. The wells are overlaid with […] of the medium. Sister wells in a separate plate are plated for time zero determination. All plates are incubated overnight at 37° C. and 5% CO2.
On a second day (e.g., Day 2), time zero values are measured. A […] volume of Cell Titer 96 Aqueous Solution (Promega) is added to each well and incubated in the dark at 37° C. and 5% CO2. Absorption can be measured at 490 nm and reference wavelength 660 nm. DMSO-prediluted test compounds are added to wells of interest, e.g., with HP Dispenser, to one or more desired concentrations (e.g., a final DMSO concentration of 0.3%).
On a tenth day (e.g., Day 10), absorption by wells treated with the test compounds and control wells are measured with, for example, Cell Titer 96 AQueous and analyzed in comparison to the time zero measurements. The IC50 values are determined using the four parameter fit. The resulting IC50 value is a measurement of the ability of the test compound to reduce cell growth of Ras-driven cells (e.g., tumor cell lines) in vitro and/or in vivo.

Assay [4] deals with T3, KRAS WT (Homo sapiens, UniProt P01116).
T3 construct: made in house; host or cells: E. coli, e.g. BL21 (DE3)
T3 sequence (P01116 1-188 isoform P01116-2): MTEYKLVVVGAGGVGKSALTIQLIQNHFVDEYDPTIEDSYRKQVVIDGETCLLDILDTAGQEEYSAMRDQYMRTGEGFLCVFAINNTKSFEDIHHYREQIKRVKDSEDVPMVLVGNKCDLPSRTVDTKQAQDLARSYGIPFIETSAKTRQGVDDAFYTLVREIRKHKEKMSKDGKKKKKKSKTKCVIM
In words: HTRF assay, wildtype KRAS interaction with SOS1. It is filed as biochemical. Conditions: bins <500 nM / 500 nM to 1000 nM, read-out: Inhibition of KRAS WT (IC50).
Excerpt: as §1, §2, §3

Assay [5] concerns the target T4, KRAS G12V (Homo sapiens, UniProt P01116, G12V).
T4 construct: made in house; host or cells: E. coli, e.g. BL21 (DE3)
The experiment in a line: HTRF assay, KRAS G12V interaction with SOS1. Conditions: bins <500 nM / 500 nM to 1000 nM, read-out: Inhibition of KRAS G12V (IC50). It is filed as biochemical.
Excerpt: as §1, §2, §3

Results on 8 molecules are retold here after patent US20260217735A1, “HETEROCYCLES AND USES THEREOF” (Kumquat Biosciences Inc., priority 2023, published 2026).

SMILES strings stand for the structures. A value given as a limit tells only on which side of the number the result lay.

T2 sequence (P01116 1-188 isoform P01116-2 G12S): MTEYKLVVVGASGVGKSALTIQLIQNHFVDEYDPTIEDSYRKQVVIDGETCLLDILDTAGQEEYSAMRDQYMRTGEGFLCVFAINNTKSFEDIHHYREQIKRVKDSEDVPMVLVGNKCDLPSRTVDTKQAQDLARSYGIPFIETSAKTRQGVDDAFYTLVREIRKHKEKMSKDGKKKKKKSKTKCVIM
T1 sequence (P01116 1-188 isoform P01116-2 G12D): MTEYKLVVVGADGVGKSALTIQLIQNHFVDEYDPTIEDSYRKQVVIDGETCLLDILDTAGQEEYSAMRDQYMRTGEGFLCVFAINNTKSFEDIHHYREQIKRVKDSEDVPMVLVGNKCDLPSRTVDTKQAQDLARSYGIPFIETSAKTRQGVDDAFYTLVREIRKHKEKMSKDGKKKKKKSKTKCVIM
T4 sequence (P01116 1-188 isoform P01116-2 G12V): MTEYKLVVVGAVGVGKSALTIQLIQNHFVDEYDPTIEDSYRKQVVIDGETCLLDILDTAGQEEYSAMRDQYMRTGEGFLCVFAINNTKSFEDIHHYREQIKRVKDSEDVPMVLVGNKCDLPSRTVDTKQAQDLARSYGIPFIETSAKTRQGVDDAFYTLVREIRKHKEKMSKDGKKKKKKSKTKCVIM

In the case of `Cc1cn(C(=O)N2CC[C@@]23CCN(c2nc(OC[C@@]45CCCN4C[C@H](F)C5)nc4c(F)c(-c5ccc(F)c6sc(N)c(C#N)c56)c(Cl)cc24)C3)cn1` (atropisomer, axis not shown; (aS)) [Compound 107, (R)-2-amino-4-(6-chloro-8-fluoro-2-(((2R,7aS)-2-fluorotetrahydro-1H-pyrrolizin-7a(5H)-yl)methoxy)-4-((R)-1-(4-methyl-1H-imidazole-1-carbonyl)-1,6-diazaspiro[3.4]octan-6-yl)quinazolin-7-yl)-7-fluorobenzo[b]thiophene-3-carbonitrile], the half-inhibitory concentration (IC50) in assay [1] was less than 500 nM; in assay [2], less than 500 nM; in assay [3] it was not above 500 nM; in assay [4] it was less than 500 nM; in assay [5], less than 500 nM.

`CCN(c1nc(OC[C@@]23CCCN2C[C@H](F)C3)nc2c(F)c(-c3ccc(F)c4sc(N)c(C#N)c34)c(C(F)(F)F)cc12)[C@@H]1CCN(C(=O)n2cc(C)nc2C)[C@@H]1C` (atropisomer, axis not shown; (aS)) [Compound 114, (S)-2-amino-4-(4-(((2R,3R)-1-(2,4-dimethyl-1H-imidazole-1-carbonyl)-2-methylpyrrolidin-3-yl)(ethyl)amino)-8-fluoro-2-(((2R,7aS)-2-fluorotetrahydro-1H-pyrrolizin-7a(5H)-yl)methoxy)-6-(trifluoromethyl)quinazolin-7-yl)-7-fluorobenzo[b]thiophene-3-carbonitrile]: the IC50 is less than 500 nM in assay [1]; less than 500 nM in assay [2]; not above 500 nM in assay [3]; less than 500 nM in assay [4]; less than 500 nM in assay [5].

`CC[C@H]1N(C(=O)n2cc(C#N)nc2C)C[C@]12CCCCN(c1nc(OC[C@@]34CCCN3C[C@H](F)C4)nc3c(F)c(-c4ccc(F)c5sc(N)c(C#N)c45)c(Cl)cc13)C2` (atropisomer, axis not shown; (aS)) [Compound 117, 1-((1R,4R)-6-(7-((R)-2-amino-3-cyano-7-fluorobenzo[b]thiophen-4-yl)-6-chloro-8-fluoro-2-(((2R,7aS)-2-fluorotetrahydro-1H-pyrrolizin-7a(5H)-yl)methoxy)quinazolin-4-yl)-1-ethyl-2,6-diazaspiro[3.6]decane-2-carbonyl)-2-methyl-1H-imidazole-4-carbonitrile]: the IC50 is less than 500 nM in assay [1]; less than 500 nM in assay [2]; not above 500 nM in assay [3]; less than 500 nM in assay [4]; less than 500 nM in assay [5].

Consider `CC1CC(N(C)c2nc(OC[C@@]34CCCN3C[C@H](F)C4)nc3c(F)c(-c4ccc(F)c5sc(N)c(C#N)c45)c(Cl)cc23)CN1C(=O)n1cnc(F)n1` (mixture of isomers) [Compound 150, 2-amino-4-(6-chloro-8-fluoro-4-((1-(3-fluoro-1H-1,2,4-triazole-1-carbonyl)-5-methylpyrrolidin-3-yl)(methyl)amino)-2-(((2R,7aS)-2-fluorotetrahydro-1H-pyrrolizin-7a(5H)-yl)methoxy)quinazolin-7-yl)-7-fluorobenzo[b]thiophene-3-carbonitrile], for which the IC50 in assay [3] is not above 500 nM.

In the case of `CN(c1nc(OC[C@@]23CCCN2C[C@H](F)C3)nc2c(F)c(-c3ccc(F)c4sc(N)c(C#N)c34)c(Cl)cc12)C1CN(C(=O)n2ccnc2)CC1F` (single isomer, unassigned) [Compound 189], in assay [3], the 50% inhibitory concentration (IC50) is not above 500 nM.

Turning to `CCN(c1nc(OCC23CCCN2C(COc2cc(C(F)(F)F)ncn2)CC3)nc2c(F)c(-c3ccc(F)c4sc(N)c(C#N)c34)c(Cl)cc12)[C@@H]1CCN(C(=O)n2cc(C)nc2C)[C@@H]1C` (single isomer, unassigned) [Compound 217], the IC50 in assay [3] is not above 500 nM.

Take `CC1CC(N(C)c2nc(OC[C@@]34CCCN3C[C@H](F)C4)nc3c(F)c(-c4ccc(F)c5sc(N)c(C#N)c45)c(Cl)cc23)CCN1C(=O)n1ccnc1` (stereo partly drawn) [Compound 209, 4-(4-((1-(1H-imidazole-1-carbonyl)-2-methylpiperidin-4-yl)(methyl)amino)-6-chloro-8-fluoro-2-(((2R,7aS)-2-fluorotetrahydro-1H-pyrrolizin-7a(5H)-yl)methoxy)quinazolin-7-yl)-2-amino-7-fluorobenzo[b]thiophene-3-carbonitrile]: the half-inhibitory concentration (IC50) in assay [1] is less than 500 nM; in assay [3] it was not above 500 nM.

In the case of `C=C1CN2CC(=C)CC2(COc2nc(N(CC)[C@@H]3CCN(C(=O)n4cnc(Cl)n4)[C@@H]3C)c3cc(C(F)(F)F)c(-c4ccc(F)c5sc(N)c(C#N)c45)c(F)c3n2)C1` [Compound 219, 2-amino-4-(4-(((2R,3R)-1-(3-chloro-1H-1,2,4-triazole-1-carbonyl)-2-methylpyrrolidin-3-yl)(ethyl)amino)-2-((2,6-dimethylenetetrahydro-1H-pyrrolizin-7a(5H)-yl)methoxy)-8-fluoro-6-(trifluoromethyl)quinazolin-7-yl)-7-fluorobenzo[b]thiophene-3-carbonitrile], the IC50 in assay [1], in assay [2], in assay [4] and in assay [5] was less than 500 nM each time.
